Laboratory results: ChEMBL document CHEMBL1135866, “Photochemical preparation of a pyridone containing tetracycle: a Jak protein kinase inhibitor” (Bioorg Med Chem Lett, 2002)

Assays:
[1] = Inhibition of protein kinase cAMP-dependent protein kinase
[2] = biological target: RAF proto-oncogene serine/threonine-protein kinase (Homo sapiens, UniProt P04049); assay: Inhibition of protein kinase Raf
[3] = Inhibition of IL-2 induced JAK-1/JAK-3-associated murine T cell lymphoma cell proliferation; format: functional, cell-based; conditions: Mus musculus
[4] = biological target: Protein kinase C alpha type (Homo sapiens, UniProt P17252); assay: Inhibition of protein kinase C alpha
[5] = biological target: Tyrosine-protein kinase HCK (Homo sapiens, UniProt P08631); assay: Inhibition of protein kinase Hck
Tyrosine-protein kinase HCK, sequence (P08631 whole entry): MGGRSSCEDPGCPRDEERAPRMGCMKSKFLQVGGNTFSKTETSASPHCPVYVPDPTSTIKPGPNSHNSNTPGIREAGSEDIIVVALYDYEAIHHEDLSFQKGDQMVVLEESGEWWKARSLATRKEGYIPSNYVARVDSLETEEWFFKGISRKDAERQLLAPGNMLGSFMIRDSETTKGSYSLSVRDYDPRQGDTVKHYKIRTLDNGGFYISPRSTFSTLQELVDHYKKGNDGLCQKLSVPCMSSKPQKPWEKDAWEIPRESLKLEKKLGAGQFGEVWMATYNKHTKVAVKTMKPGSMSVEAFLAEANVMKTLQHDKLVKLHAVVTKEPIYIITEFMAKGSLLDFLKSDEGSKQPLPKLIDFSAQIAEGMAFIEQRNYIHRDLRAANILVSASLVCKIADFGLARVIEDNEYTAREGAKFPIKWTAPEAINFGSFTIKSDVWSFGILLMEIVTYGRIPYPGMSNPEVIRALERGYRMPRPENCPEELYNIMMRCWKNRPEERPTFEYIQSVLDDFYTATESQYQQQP

[6] = biological target: T1, Inhibitor of nuclear factor kappa-B kinase subunit beta (Homo sapiens, UniProt O14920); assay: Inhibition of I-kappa-B kinase 2
T1 sequence (O14920 whole entry): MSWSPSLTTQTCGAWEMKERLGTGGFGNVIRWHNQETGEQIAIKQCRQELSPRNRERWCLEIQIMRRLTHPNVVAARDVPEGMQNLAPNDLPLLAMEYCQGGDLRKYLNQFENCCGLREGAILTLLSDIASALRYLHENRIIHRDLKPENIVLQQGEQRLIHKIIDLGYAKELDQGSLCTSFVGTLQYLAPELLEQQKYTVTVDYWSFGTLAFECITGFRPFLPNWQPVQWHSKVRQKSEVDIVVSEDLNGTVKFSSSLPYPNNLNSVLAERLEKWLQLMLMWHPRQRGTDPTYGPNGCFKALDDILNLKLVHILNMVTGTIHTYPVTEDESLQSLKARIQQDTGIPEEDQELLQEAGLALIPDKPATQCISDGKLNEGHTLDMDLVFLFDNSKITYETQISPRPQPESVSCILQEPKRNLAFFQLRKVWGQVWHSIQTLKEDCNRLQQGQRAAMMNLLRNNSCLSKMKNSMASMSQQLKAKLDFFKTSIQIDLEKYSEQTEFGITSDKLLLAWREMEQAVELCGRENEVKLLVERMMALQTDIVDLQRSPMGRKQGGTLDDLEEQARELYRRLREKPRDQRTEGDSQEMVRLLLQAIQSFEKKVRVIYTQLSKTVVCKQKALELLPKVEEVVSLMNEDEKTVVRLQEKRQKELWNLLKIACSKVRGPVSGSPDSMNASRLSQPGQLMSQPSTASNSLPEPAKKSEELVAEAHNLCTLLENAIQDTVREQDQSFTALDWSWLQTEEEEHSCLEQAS

[7] = Inhibition of IL-4 induced JAK-1/JAK-3 associated murine T cell lymphoma cell proliferation; format: functional, cell-based; conditions: Mus musculus
Angiopoietin-1 receptor = Angiopoietin-1 receptor (Homo sapiens, UniProt Q02763); assay: Inhibition of Tek kinase
Angiopoietin-1 receptor, sequence (Q02763 whole entry): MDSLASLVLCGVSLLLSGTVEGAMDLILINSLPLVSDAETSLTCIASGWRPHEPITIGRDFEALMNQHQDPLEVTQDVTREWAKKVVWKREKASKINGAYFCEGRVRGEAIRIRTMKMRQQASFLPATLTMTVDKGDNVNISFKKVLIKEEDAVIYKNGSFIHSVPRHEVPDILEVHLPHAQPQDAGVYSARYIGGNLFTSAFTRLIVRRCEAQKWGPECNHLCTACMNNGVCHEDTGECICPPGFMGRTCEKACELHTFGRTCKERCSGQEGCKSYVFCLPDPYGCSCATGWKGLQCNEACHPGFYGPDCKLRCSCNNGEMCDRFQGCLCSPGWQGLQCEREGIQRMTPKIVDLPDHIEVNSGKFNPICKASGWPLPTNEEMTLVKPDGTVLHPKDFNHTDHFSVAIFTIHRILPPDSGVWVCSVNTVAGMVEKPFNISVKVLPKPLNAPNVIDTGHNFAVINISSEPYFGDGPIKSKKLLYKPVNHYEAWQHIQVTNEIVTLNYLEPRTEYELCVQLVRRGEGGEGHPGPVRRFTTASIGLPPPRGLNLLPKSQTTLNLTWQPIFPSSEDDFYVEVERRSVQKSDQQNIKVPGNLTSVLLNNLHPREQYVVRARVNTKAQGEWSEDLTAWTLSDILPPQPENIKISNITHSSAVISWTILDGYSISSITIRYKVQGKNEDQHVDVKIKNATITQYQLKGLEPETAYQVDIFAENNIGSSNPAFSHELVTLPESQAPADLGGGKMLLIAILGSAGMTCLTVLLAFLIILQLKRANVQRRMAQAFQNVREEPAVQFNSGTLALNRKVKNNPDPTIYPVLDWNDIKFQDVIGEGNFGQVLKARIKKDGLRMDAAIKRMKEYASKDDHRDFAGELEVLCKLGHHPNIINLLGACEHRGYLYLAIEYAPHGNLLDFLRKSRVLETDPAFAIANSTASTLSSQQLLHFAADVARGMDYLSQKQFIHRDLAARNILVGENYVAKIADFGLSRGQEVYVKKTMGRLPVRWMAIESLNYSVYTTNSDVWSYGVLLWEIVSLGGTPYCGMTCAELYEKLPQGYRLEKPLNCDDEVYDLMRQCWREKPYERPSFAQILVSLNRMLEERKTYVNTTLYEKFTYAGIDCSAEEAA

[8] = biological target: Vascular endothelial growth factor receptor 3 (Homo sapiens, UniProt P35916); assay: Inhibition of Vascular endothelial growth factor receptor 3
Vascular endothelial growth factor receptor 3, sequence (P35916 whole entry): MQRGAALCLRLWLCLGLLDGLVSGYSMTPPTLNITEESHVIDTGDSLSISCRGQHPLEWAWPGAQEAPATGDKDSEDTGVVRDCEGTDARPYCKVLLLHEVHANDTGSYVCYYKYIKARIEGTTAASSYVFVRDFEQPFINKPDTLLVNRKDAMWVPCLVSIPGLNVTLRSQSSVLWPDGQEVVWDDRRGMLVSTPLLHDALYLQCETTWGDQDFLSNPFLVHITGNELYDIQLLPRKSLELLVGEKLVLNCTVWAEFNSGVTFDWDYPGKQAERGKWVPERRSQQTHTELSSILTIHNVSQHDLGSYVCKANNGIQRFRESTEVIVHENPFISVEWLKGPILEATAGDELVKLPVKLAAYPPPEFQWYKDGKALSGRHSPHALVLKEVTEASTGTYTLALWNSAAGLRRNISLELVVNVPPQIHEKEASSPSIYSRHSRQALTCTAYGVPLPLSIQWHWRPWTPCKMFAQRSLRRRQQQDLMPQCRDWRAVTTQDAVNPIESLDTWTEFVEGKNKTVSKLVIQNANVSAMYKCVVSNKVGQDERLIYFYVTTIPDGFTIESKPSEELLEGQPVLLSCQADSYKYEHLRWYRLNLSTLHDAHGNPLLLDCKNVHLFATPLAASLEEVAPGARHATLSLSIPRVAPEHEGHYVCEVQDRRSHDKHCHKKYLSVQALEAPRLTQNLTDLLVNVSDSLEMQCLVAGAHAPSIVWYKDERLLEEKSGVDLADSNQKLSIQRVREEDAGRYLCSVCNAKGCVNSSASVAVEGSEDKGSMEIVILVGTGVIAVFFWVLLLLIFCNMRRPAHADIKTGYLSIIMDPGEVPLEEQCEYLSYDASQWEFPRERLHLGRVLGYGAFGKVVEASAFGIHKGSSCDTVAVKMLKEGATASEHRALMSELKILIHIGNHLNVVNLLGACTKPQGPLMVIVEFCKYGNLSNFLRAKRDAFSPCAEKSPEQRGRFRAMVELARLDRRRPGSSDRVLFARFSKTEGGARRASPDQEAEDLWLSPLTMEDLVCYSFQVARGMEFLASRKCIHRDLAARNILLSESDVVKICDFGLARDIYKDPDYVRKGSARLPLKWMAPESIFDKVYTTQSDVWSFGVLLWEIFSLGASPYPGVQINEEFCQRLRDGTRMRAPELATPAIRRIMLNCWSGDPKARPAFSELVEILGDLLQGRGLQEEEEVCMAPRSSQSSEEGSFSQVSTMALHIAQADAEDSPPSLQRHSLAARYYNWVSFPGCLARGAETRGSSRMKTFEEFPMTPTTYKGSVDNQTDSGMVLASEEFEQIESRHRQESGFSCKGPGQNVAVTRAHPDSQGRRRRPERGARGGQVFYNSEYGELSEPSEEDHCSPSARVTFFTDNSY

[9] = biological target: Fibroblast growth factor receptor 2 (Homo sapiens, UniProt P21802); assay: Inhibition of Fibroblast growth factor receptor 2
Fibroblast growth factor receptor 2, sequence (P21802 whole entry): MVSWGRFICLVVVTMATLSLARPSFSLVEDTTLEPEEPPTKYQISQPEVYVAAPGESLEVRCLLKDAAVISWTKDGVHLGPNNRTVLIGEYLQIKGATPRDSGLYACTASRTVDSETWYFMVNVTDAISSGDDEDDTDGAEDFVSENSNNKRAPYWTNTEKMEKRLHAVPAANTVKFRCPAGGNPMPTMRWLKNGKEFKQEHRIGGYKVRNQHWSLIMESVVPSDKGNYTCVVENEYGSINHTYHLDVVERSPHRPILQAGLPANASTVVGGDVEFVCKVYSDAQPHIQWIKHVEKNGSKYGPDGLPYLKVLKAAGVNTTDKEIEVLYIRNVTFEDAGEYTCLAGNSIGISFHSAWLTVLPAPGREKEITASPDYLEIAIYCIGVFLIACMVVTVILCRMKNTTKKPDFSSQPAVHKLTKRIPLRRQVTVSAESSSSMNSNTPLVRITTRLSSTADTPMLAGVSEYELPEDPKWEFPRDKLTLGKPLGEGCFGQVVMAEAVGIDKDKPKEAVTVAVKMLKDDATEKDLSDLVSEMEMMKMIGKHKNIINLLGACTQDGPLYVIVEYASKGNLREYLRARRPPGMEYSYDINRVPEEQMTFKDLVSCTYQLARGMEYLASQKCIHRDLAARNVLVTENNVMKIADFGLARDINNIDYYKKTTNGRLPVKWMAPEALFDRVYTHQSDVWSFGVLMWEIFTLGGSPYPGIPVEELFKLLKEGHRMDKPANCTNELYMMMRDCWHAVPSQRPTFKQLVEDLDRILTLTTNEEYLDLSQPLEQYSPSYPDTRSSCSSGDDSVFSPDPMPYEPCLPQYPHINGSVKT

[10] = biological target: Cyclin-dependent kinase 2 (Homo sapiens, UniProt P24941); assay: Inhibition of cyclin dependent kinase 2
CTLL = assay: Inhibition of PMA-induced murine T cell lymphoma cell proliferation; format: functional, cell-based; conditions: Mus musculus

With `CC(C)(C)c1nc2c3ccc(F)cc3c3c(=O)[nH]ccc3c2[nH]1` the IC50 [1] was 7100 nM, the IC50 [2] was over 10000 nM and the IC50 [3] was 100 nM. The IC50 [4] was 1200 nM, the IC50 [5] was 7700 nM and the IC50 [6] was 300 nM. For the same molecule, the IC50 [7] was 52 nM, the IC50 (Angiopoietin-1 receptor) was 24000 nM and the IC50 [8] was 690 nM. The IC50 [9] was 940 nM, the IC50 [10] was 3300 nM and the IC50 (CTLL) was 3100 nM.
